The source of these data is patent publication US5902583A, “Genetic induction of receptors for targeted radiotherapy” (priority 1997, dated 1999).

Entries after “also recorded” stand apart in the source; their conditions may differ. Like-named read-outs stand apart in the source and are kept apart here.

One series has as its system SSTR2. The following applies: cited from earlier work.
For series [1] the following is noted: native somatostatin; cited from earlier work.
Another series concerns human IL-4 receptor. The following applies: murine ligand; cited from earlier work.
Series [2] has as its system SKOV3.ip1 tumors expressing mGRPr. Description: Biodistribution and pharmacokinetics of radiolabeled bombesin analogue in mice bearing i.p. SKOV3.ip1 tumors infected with AdCMVGRPr. Format: in vivo, human SKOV3.ip1 tumors in athymic nude mice. The method, then: All biodistribution studies were performed in female Balb/c athymic nude mice obtained at 4-5 weeks of age from Frederick Research Laboratory (Frederick, Md.). The peptide mIP-Des-Met-bombesin(7-13)NH2 was synthesized using solid phase peptide synthesis at the UAB Comprehensive Cancer Center Peptide Synthesis and Analysis Shared Facility and has been described elsewhere. Mice were injected i.p. with 2×10^7 SKOV3.ip1 human ovarian carcinoma cells. Five days following cell inoculation, mice were injected i.p. with 1×10^9 pfu of a recombinant adenoviral vector expressing mGRPr. Animals were then injected i.p. 48 hours later with 2 μCi of [^125 I]-mIP bombesin. Mice were sacrificed at 0.5, 2, 5, 15, 30 min and 1, 4, 8, 12 and 24 hours following peptide injection (n=4-10/group) and the following organs were dissected: blood, heart, lungs, liver, stomach, small intestine, spleen, kidney, skin, bone, muscle, uterus, peritoneal lining and thyroid. In addition, tumor nodules were removed from each mouse. All organs, and tumors were weighed and the activity counted in a gamma counter. The % ID/g for each tissue was calculated except for the thyroid in which only the % ID was determined.
Descriptive statistics were calculated to examine the distribution and variation of time concentration of radiolabeled antibody and peptide, and tissue to blood ratio data (means and standard deviations). Means at each specific time point were calculated from multiple mice data for both tissue concentration and tissue to blood ratios. Mean concentration data (% ID/g) over time was used for pharmacokinetical modeling. The pharmacokinetical parameters were estimated by using the NLIN procedure of Statistical Analysis System programs. Selection of models was based on comparison of Akaike's Information Criterion, the minimization of the model's mean squared error and standard error of the estimated model parameters, and the graphical diagnostics of the model fit.
Four different pharmacokinetic models, including one and two compartment elimination models along with one and two-compartment models with an absorption phase were required to fit the time concentration curves for the peptide. […] For each of these, the elimination t1/2 was calculated along with Cmax and AUC. A one-compartment model with an absorption phase was determined to be the best model for abdominal lining and muscle data. For each of these, the elimination t1/2 values for each compartment were calculated along with Cmax and AUC. A two-compartment model with an absorption phase was the best model for blood, kidney, and small intestine data. For each of these, elimination t1/2 values for each compartment and the absorption t1/2 value was calculated along with Cmax, Tmax and AUC.

Another series relates to mGRPr expressing cells. Description: Internalization and intracellular retention in mGRPr expressing cells. Format: cell-based, murine.
The test system of the next series is mGRPr. Nature of the series: Binding to murine GRP receptor.
The test system of a further series is IL-4 receptor. Nature of the series: Radiolabeled IL-4 binding after adenovirus-polylysine-DNA transduction of IL-4 receptor. The settings on record: adenovirus-polylysine-DNA conjugates.
For a further series, the system named is murine IL-4 receptor. The settings on record: cited from earlier work.
Series [3] concerns murine gastrin releasing peptide receptor (mGRP-R). Nature of the series: Radiolabeled bombesin binding after adenovirus-polylysine-mediated transfection of GRPr. The settings on record: AdpL, versus uninfected controls. The text has this:
Next, gene mediated expression of receptors was applied in the context of inducing expression of a receptor that could be targeted with a radiolabeled peptide and thus employed the gene encoding the murine gastrin releasing peptide receptor (mGRP-R). The first technique utilized the methodology of an adenovirus-polylysine-mediated transfection (AdpL) to accomplish transient gene expression of mGRP-R in human lung cancer cells.

Turning to `C[C@@H](O)[C@@H]1NC(=O)[C@H](CCCCN)NC(=O)[C@@H](Cc2c[nH]c3ccccc23)NC(=O)[C@H](Cc2ccccc2)NC(=O)[C@@H](NC(=O)[C@H](N)Cc2ccccc2)CSSC[C@@H](C(=O)N[C@H](CO)[C@@H](C)O)NC1=O` [Octreotide], the “binding to SSTR2” value in the series with SSTR2 was “binds with high affinity”.
Turning to `C[C@H](N)C(=O)NCC(=O)N[C@H]1CSSC[C@@H](C(=O)O)NC(=O)[C@H](CO)NC(=O)[C@H]([C@@H](C)O)NC(=O)[C@H](Cc2ccccc2)NC(=O)[C@H]([C@@H](C)O)NC(=O)[C@H](CCCCN)NC(=O)[C@H](Cc2c[nH]c3ccccc23)NC(=O)[C@H](Cc2ccccc2)NC(=O)[C@H](Cc2ccccc2)NC(=O)[C@H](CC(N)=O)NC(=O)[C@H](CCCCN)NC1=O` [Somatostatin], the plasma half-life entry in series [1] is reported as “minutes”.
On to “Murine IL-4: glycoprotein with an approximate molecular weight of 19 kD”, for which the “binding to the human receptor” value in the series with human IL-4 receptor is “does not exhibit binding”.
Take “[^125 I]-mIP-Des-Met^14 -bombesin(7-13)NH2 [[^125 I]-mIP-bombesin]”: the “concentration in tumor (highest)” value in series [2] (30 sec after injection, 0.5 min) worked out at 33.6±18.2 % ID/g. In addition, the “tumor to blood ratio relative to antibody” value worked out at 24.8 fold in [2] (30 sec, versus e21) and 15.4 fold in series [2] (24 hours, versus e21). For the same molecule, the “tumor localization at 4 hours post injection versus [^125 I]-Tyr-bombesin” value in [2] (4 hours post injection) is on record as “much greater”. Further, the concentration in tumor in series [2] (24 hours after injection) came to 2.5±2.8 % ID/g. In addition, the AUC was determined as 160.9 percent ID × h/g in [2] (abdominal lining); 8.0 percent ID × h/g in series [2] (blood); 12.8 percent ID × h/g in series [2] (bone); 8.3 percent ID × h/g in series [2] (heart); 44.8 percent ID × h/g in [2] (kidney); 49.2 percent ID × h/g in [2] (liver). Moreover, the AUC in series [2] (lung) stood at 7.6 percent ID × h/g; in series [2] (muscle) it was 12.4 percent ID × h/g; in series [2] (skin) it was 5.9 percent ID × h/g; in series [2] (small intestine), 112 percent ID × h/g; in series [2] (spleen) it was 71.7 percent ID × h/g; in series [2] (stomach), 172.3 percent ID × h/g. In addition, the AUC in [2] (tumor) was 193.1 percent ID × h/g; in [2] (uterus), 182.8 percent ID × h/g. Moreover, the Cmax in [2] (abdominal lining) is on record as 47.7 percent ID/g; in series [2] (blood), 1.5 percent ID/g; in series [2] (bone) it was 1.1 percent ID/g; in [2] (heart) it was 0.9 percent ID/g; in series [2] (kidney), 15.3 percent ID/g; in [2] (liver), 9.8 percent ID/g. Also, the Cmax is given as 1.3 percent ID/g in series [2] (lung); 3.6 percent ID/g in [2] (muscle); 1.0 percent ID/g in [2] (skin); 41.7 percent ID/g in [2] (small intestine); 10.9 percent ID/g in series [2] (spleen); 10.2 percent ID/g in series [2] (stomach). Also, the Cmax stood at 25.6 percent ID/g in series [2] (tumor) and 29.2 percent ID/g in [2] (uterus). Besides, the t1/2α in [2] (abdominal lining) was determined as 0.1 h; in [2] (blood) it was 0.8 h; in series [2] (kidney) it was 0.4 h; in [2] (muscle), 0.6 h; in [2] (small intestine), 0.6 h. The t1/2β in series [2] (abdominal lining) was 6.5 h; in [2] (blood), 6.7 h; in series [2] (bone), 7.9 h; in series [2] (heart), 6.6 h; in series [2] (kidney), 4.7 h; in series [2] (liver), 3.5 h. Also, the t1/2β in [2] (lung) stood at 4.1 h; in series [2] (muscle) it was 7.7 h; in series [2] (skin), 3.7 h; in series [2] (small intestine) it was 8.3 h; in series [2] (spleen), 4.6 h; in series [2] (stomach), 11.7 h. Besides, the t1/2β in [2] (uterus) is 4.3 h. Also, the time to peak (Tmax) – broadly, the time at which the peak concentration occurs – in series [2] (blood) was determined as 0.6 h; in series [2] (kidney), 0.5 h; in series [2] (lung), 0.05 h; in series [2] (skin) it was 0.4 h; in series [2] (small intestine), 0.3 h; in series [2] (stomach), 0.05 h. Further, the “tumor to blood ratio” value in [2] (level after drop from initial peak and rise) is “about 50”. For the same molecule, in series [2] (tumor), the “t1/2β (clearance half-life)” value is 5.2 h. The “peak tumor to blood ratio, bombesin analogue relative to antibody” value in series [2] (versus e21) is 12.6 fold. The “internalization versus [^125 I]-Tyr-bombesin” value with mGRPr expressing cells is listed as “higher internalization”. The “intracellular retention versus [^125 I]-Tyr-bombesin” value in the series with mGRPr expressing cells is given as “longer intracellular retention”; in the series on mGRPr expressing cells (listed as modified seven amino acid analogue of bombesin), “longer retention time within cells”. Further, the “binding to mGRPr” value in the series with mGRPr is listed as “high affinity binding”.
On to “^125 I-labeled IL-4: ^125 I-labeled IL-4”, for which the “radiolabeled IL-4 binding to transduced cells” value with IL-4 receptor was “specific binding”. In addition, the Ka in the series on murine IL-4 receptor (^125 I-IL-4, transduced COS-7 cells) is recorded as 10^9 -10^10 M^-1.
As to “^125 I-labeled bombesin: ^125 I-labeled bombesin”, the “radiolabeled bombesin binding to transduced cells” value in [3] is recorded as “specific binding; also recorded: successfully demonstrated”.
With human IL-4: human IL-4, the “binding to the murine receptor” value with murine IL-4 receptor (human IL-4) is recorded as “does not exhibit binding”.
